Laboratory results taken from patent publication US20240327423A1, “A SERIES OF PYRROLE DERIVATIVES AND THEIR PREPARATION METHOD AND THERAPEUTIC USE” (SHENZHEN SUNGENING BIO-MEDICAL CO., LTD, priority 2020, published 2024).
In brackets after ≈: the same amount, converted by molar mass. Read-outs that look alike come from different tables or passages of the source.

Key:
[1] = tested on: Aspergillus flavus (ATCC MYA-1004); assay: Measurement of minimum inhibitory concentration (MIC), ATCC MYA-1004; assay type: cell-based; conditions: Aspergillus flavus ATCC MYA-1004, 35° C., 48 hours
Method: (§1) New streaks are made with glycerol stock solution of the strains of Aspergillus fumigatus (ATCC MYA-4609/AF 293/CBS 101355) on Sabouraud's dextrose agar (SDA), incubate at 35° C. and a humidity of 40-70% for 72 hours. Other strains are processed as the same as AF293.
(§2) RPMI1640: one packet of RPMI1640 powder is dissolved in 1 L purified water and mixed well, add 0.165M MOPS, adjust the pH to 7.0, sterilize by filtration with 0.22 um membrane, and store at 4° C. for no more than 3 months.
(§3) Physiological saline: weigh 9 g of sodium chloride powder and dissolve in 1 L of purified water, and mixed well. Sterilize at 121° C. for 30 min, store at room temperature (RT) for no more than 1 week.
(§4) Dissolve the test compound and stock solution of one control compound with DMSO and obtain solutions at a concentration of 12.8 mg/mL
(§5) The maximum concentration of each compound is 0.8 mg/mL (e.g., 150 μL of dimethyl sulfoxide+10 uL of 12.8 mg/mL compound/control). Column 1 is filled with 40 μL of compound and columns 2 to 11 with 20 μL of dimethyl sulfoxide. Transfer 20 μL of compound from column 1 to column 2 to dilute the concentration. Repeat the above steps up to column 11 to give 2× serial dilutions.
(§6) 2 μL of the above 2× serial dilutions are injected into each hole of the corresponding test plate using a multichannel pipette.
(§7) Drop 5 ml of saline on the Aspergillus fumigatus SDA plate. The spores were carefully wiped off from the surface of the plate with an L-shaped coating rod. Then the suspension is transferred into a sterile tube. After shaking, let the tube stand for 5 to 10 minutes. Count the number of spores in the upper suspension with a hemocytometer and check the purity. Adjust the inoculum concentration to 0.2-2.5×10^4 spores/mL.
(§8) Inject 198 μL of diluted inoculum into each holes of the corresponding test plate using a multichannel pipette.
(§9) Incubate at 35° C. for 48 hours.
(§10) To facilitate scoring of the presence or absence of growth on the wall, a magnifying glass is used. The tested 96-well microplates were photographed and the optical density at 530 nm is read with an enzyme marker (Tecan Spark).

[2] = tested on: Aspergillus fumigatus (ATCC-204305); assay: Measurement of minimum inhibitory concentration (MIC), ATCC 204305; assay type: cell-based; conditions: Aspergillus fumigatus ATCC 204305, 35° C., 48 hours; for MIC: ATCC204305
Method: New streaks are made with glycerol stock solution of the strains of Aspergillus [NT] MYA-4609/AF 293/CBS 101355) on Sabouraud's dextrose agar (SDA), incubate at 35° C. and a humidity of 40-70% for 72 hours. Other strains are processed as the same as AF293. RPMI1640: one packet of RPMI1640 powder is dissolved in 1 L purified water and mixed well, add 0.165M MOPS, adjust the pH to 7.0, sterilize by filtration with 0.22 um membrane, and store at 4° C. for no more than 3 months. Physiological saline: weigh 9 g of sodium chloride powder and dissolve in 1 L of purified water, and mixed well. […] Dissolve the test compound and stock solution of one control compound with DMSO and obtain solutions at a concentration of 12.8 mg/mL The maximum concentration of each compound is 0.8 mg/mL (e.g., 150 μL of dimethyl sulfoxide+10 uL of 12.8 mg/mL compound/control). […] Repeat the above steps up to column 11 to give 2× serial dilutions. 2 μL of the above 2× serial dilutions are injected into each hole of the corresponding test plate using a multichannel pipette. Drop 5 ml of saline on the Aspergillus fumigatus SDA plate. The spores were carefully wiped off from the surface of the plate with an L-shaped coating rod. Then the suspension is transferred into a sterile tube. After shaking, let the tube stand for 5 to 10 minutes. Count the number of spores in the upper suspension with a hemocytometer and check the purity. Adjust the inoculum concentration to 0.2-2.5×10^4 spores/mL. Inject 198 μL of diluted inoculum into each holes of the corresponding test plate using a multichannel pipette. Incubate at 35° C. for 48 hours. […] To facilitate scoring of the presence or absence of growth on the wall, a magnifying glass is used. The tested 96-well microplates were photographed and the optical density at 530 nm is read with an enzyme marker (Tecan Spark).

[3] = Pharmacokinetic test in SD rats, single oral administration; assay type: in vivo; conditions: single oral administration 10 mg/kg, test compound mixed with F901318, plasma
Method: Pharmacokinetic study is performed on SD rats receiving single oral administration of each test compound mixed with F901318 (10 mg/kg, 3 rats per group). Test compounds and F901318 are dissolved with […]+10% solutol+85% saline, vortexed for 1-2 mins and ultra-sonicated for 5-10 mins to form a colorless clear drug solution. The animals are fasted overnight before oral administration, and resumed feeding 4 hours after administration. After oral administration, pharmacokinetic samples are collected from orbital blood of SD rats at 0.083 h, 0.25 h, 0.5 h, 1 h, 2 h, 4 h, 6 h, 8 h, and 24 h, and three whole blood samples are collected at each time point in a volume of 0.2-0.3 mL. Blood samples are placed on ice immediately after collected, and the plasma is separated by centrifugation within 15 min (centrifugation conditions: 8000 rpm, 1 min, and at room temperature).
The collected plasma is stored at −20° C. prior to analysis. Transfer 20 μL of plasma sample into an 0.5 mL EP tube, add 200 μL of working internal standard solution (blank group is without internal standard, using the same volume of solvent instead), vortex and mix for 3 min centrifuge at 13500 rpm for 10 min, take 100 μL of supernatant and analyze with LC-MS/MS.

[4] = tested on: Aspergillus fumigatus (ATCC MYA-4609/AF293/CBS 101355); assay: Measurement of minimum inhibitory concentration (MIC), AF293; assay type: cell-based; conditions: CBS101355; Aspergillus fumigatus AF293, 35° C., 48 hours, RPMI1640; read-out: AF293: MIC
Method: as §1, §2, §3, §4, §5, §6, §7, §8, §9, §10

[5] = tested on: Aspergillus flavus (ATCC 204304); assay: Measurement of minimum inhibitory concentration (MIC), ATCC 204304; assay type: cell-based; conditions: ATCC204304; Aspergillus flavus ATCC 204304, 35° C., 48 hours
Method: as §1, §2, §3, §4, §5, §6, §7, §8, §9, §10

[6] = Liver microsomal stability test, human; assay type: in vitro ADME; conditions: Human liver microsomes
Method: (§11) • 1: Add 10 μL of working solutions of test product or reference product and 80 μL of microsomal working solution (liver microsomal protein concentration of 0.5 mg/mL) to wells of TO, T5, T10, T20, T30, T60, and NCF60, and only microsomal working solution is added to the Blank60 wells. Then the samples of Blank60, T10, T20, T30 and T60, except for TO and NCF60, are placed in a water bath set at 37° C. and incubate for approximately 10 mins; • 2: Add 300 μL of termination solution (acetonitrile solution containing 200 ng/mL tolbutamide and 200 ng/mL labetalol) to Sample TO, followed by 10 ul of NADPH regeneration system working solution; • 3: After incubation of Blank60, T5, T10, T20, T30 and T60 on incubation plates, add 10 μL of NADPH regeneration system working solution to each sample well to start the reaction, and 10 uL of 100 mM potassium phosphate buffer is add to the NCF60 sample wells; • 4: After incubation for appropriate times (e.g., 5, 10, 20, 30 and 60 mins), 300 μL of termination solution is add to each sample well of test product and reference product on Blank60, T5, T10, T20, T30, T60 and NCF60 plates, respectively, to terminate the reaction. • 5: All sample plates are shaken well and centrifuged at 4000 rpm for 20 min, take 100 μL of the supernatant of the test product or reference product, dilute in 300 μL of pure water for LC-MS/MS analysis, respectively. • 6: Data analysis, T½ and CLint(mic) (μL/min/mg) values are calculated based on the first-order elimination kinetics, and the equations of first-order elimination kinetics are: […]

[7] = Liver microsomal stability test, mouse; assay type: in vitro ADME; conditions: Mouse liver microsomes
Method: as §11

[8] = tested on: Aspergillus fumigatus ATCCMYA-4690 (AF293); assay: Survival rate experiment II of mouse bloodstream infection model with Aspergillus fumigatus; assay type: in vivo; conditions: immunosuppressed male CD-1 mouse
Method: Test Case 6: Survival Rate Experiment II of Mouse Bloodstream Infection Model with Aspergillus fumigatus • Animal for experiment: male CD-1 mouse, 6-8 weeks old, 10 animals per group. • Induction of immunosuppression: the day of infection is defined as day 0, and mouses are injected intraperitoneally with corresponding doses of cyclophosphamide on day −4 (150 mg/kg), day −1 (100 mg/kg), and day 2 (100 mg/kg), respectively. • Microbial pathogen: Aspergillus fumigatus ATCCMYA-4690 (AF293). • Collection conditions of inoculum: culture on SDA culture plates, incubate at 25° C. for at least 7 days, collect with PBS+0.1% Tween 20, and count microscopically; • Inoculation level, route and volume: 3.90E+05 CFU/mouse, tail vein injection, injection volume of 100 μL/mouse; • Treatment: Treatment is started 24 hours after infection, and test compounds are dissolved in PEG400 (0.3 mg/mL), […] The administrated mouses are observed for 8 hours.

[9] = 0.5 mg/mL protein, 37° C., NADPH

SMILES	MIC [1] [µg/mL]	MIC [2] [µg/mL]	MIC [4] [µg/mL]	MIC [5] [µg/mL]	CLint scaled [6, 9] [mL/min/kg]	half-life [6, 9] [min]	Remaining, (T = 60 min) [6] [%]	CLint scaled [7, 9] [mL/min/kg]	half-life [7, 9] [min]	Remaining, (T = 60 min) [7] [%]	other results
Cc1cc(-c2ccccc2)c(C(=O)C(=O)Nc2ccc3c(c2)OCC2CN(c4ncc(F)cn4)CCN32)n1C (stereo not drawn) [Example 3, 2-(1,5-dimethyl-3-phenyl-1H-pyrrol-2-yl)-N-(3-(5-fluoropyrimidin-2-yl)-1,2,3,4,4a,5-hexahydrobenzo[b]pyrazino[1,2-d][1,4]oxazin-8-yl)-2-oxoacetamide]	0.008 (≈ 0.0152 µM)	0.016 (≈ 0.0304 µM)	0.125 (≈ 0.237 µM)	0.008 (≈ 0.0152 µM)							AUC ([3]; SD, rat, plasma, po, 10 mg/kg, read-out: AUC): 18700 ng·h/mL; Cmax ([3]; SD, rat, plasma, po, 10 mg/kg, read-out: Cmax): 1420 ng/mL; Tmax ([3]; SD, rat, plasma, po, 10 mg/kg, read-out: Tmax): 55 min; half-life ([3]; SD, rat, plasma, po, 10 mg/kg, read-out: T½ (converted)): 321 min
Cc1cc(-c2ccccc2F)c(C(=O)C(=O)Nc2ccc3c(c2)C[C@H]2CN(c4ncc(F)cn4)CCN32)n1C [Example 38, (S)-2-(3-(2-fluorophenyl)-1,5-dimethyl-1H-pyrrol-2-yl)-N-(2-(5-fluoropyrimidin-2-yl)-1,2,3,4,10,10a-hexahydropyrazino[1,2-a]indol-8-yl)-2-oxyacetamide]							25.3			24.5	CLint [6, 9]: 40.7 mL/min/kg; T1/2 [6, 9]: 30.7 min; ATCC 204305: MIC [2]: 0.008 µg/mL; AUC [3]: 41566.714 ng·h/mL; Cmax [3]: 3053.085 ng/mL; Tmax [3]: 60 min; T½ [3]: 672.12 min; day 7 survival rate ([8]; 3 mg/kg (bid) orally for 6 days, started 24 hours after infection): 50%; survival time of mouses ([8]; oral, bid): prolong the survival time; CLint [7, 9]: 85.1 mL/min/kg; T1/2 [7, 9]: 29.3 min

Now from value to compound, other results behind:

MIC [1] [µg/mL]	MIC [2] [µg/mL]	MIC [4] [µg/mL]	MIC [5] [µg/mL]	CLint scaled [6, 9] [mL/min/kg]	half-life [6, 9] [min]	Remaining, (T = 60 min) [6] [%]	CLint scaled [7, 9] [mL/min/kg]	half-life [7, 9] [min]	Remaining, (T = 60 min) [7] [%]	SMILES	other results
0.008 (≈ 0.0147 µM)	0.016 (≈ 0.0294 µM)	0.03 (≈ 0.0551 µM)	0.016 (≈ 0.0294 µM)	66.4	18.8	10.5	114	21.8	14.3	Cc1cc(-c2ccccc2)c(C(=O)C(=O)Nc2cc(F)c3c(c2)OCC2CN(c4ncc(F)cn4)CCN32)n1C (stereo not drawn) [Example 4]	
0.016 (≈ 0.0305 µM)	0.03 (≈ 0.0572 µM)	0.008 (≈ 0.0152 µM)	0.016 (≈ 0.0305 µM)	56.4	22.1	26.6	89.8	27.8	26.2	Cc1cc(-c2ccccc2)c(C(=O)C(=O)Nc2ccc3c(c2)CCC2CN(c4ncc(F)cn4)CCN32)n1C (stereo not drawn) [Example 32, 2-(1,5-dimethyl-3-phenyl-1H-pyrrol-2-yl)-N-(3-(5-fluoropyrimidin-2-yl)-2,3,4,4a,5,6-hexahydro-1H-pyrazino [1,2-a]quinolin-8-yl)-2-oxoacetamide]	
0.008 (≈ 0.0157 µM)	0.03 (≈ 0.0588 µM)	0.016 (≈ 0.0313 µM)	0.016 (≈ 0.0313 µM)	31.3	39.9	34.5	45.9	54.4	48.5	Cc1cc(-c2ccccc2)c(C(=O)C(=O)Nc2ccc3c(c2)C[C@@H]2CN(c4ncc(F)cn4)CCN32)n1C [Example 34, (R)-2-(1,5-dimethyl-3-phenyl-1H-pyrrol-2-yl)-N-(2-(5-fluoropyrimidin-2-yl)-1,2,3,4,10,10a-hexahydropyrazino [1,2-a]indol-8-yl)-2-oxoacetamide]	
